The record followed here is BindingDB's records for doi:10.1021/bi00152a045 (Mcmaster University, 1992).

In the assay the target is Protein kinase C alpha type (Rattus norvegicus, UniProt P05696). Kind of assay: Mixed Micelle Assay. The note with it: pH 7.5; 30 °C. The text has this: The triton X-100 assay previously described by Bell and co-workers were used to measure enzyme activity.
In the case of `CC(C)CCCC(C)C1CCC2C3CC=C4CC(C(=O)NCCN(C)C)CCC4(C)C3CCC12C` (stereo not drawn) [Amphiphile, III], the IC50 was 258 µM.

In the case of `CC(C)CCCC(C)C1CCC2C3CC=C4CC(C(=O)NCC[N+](C)(C)C)CCC4(C)C3CCC12C` (stereo not drawn) [Amphiphile, IV], half-maximal inhibition (IC50) required 12 µM.

As for `CC(C)CCCC(N)C1CCN2C3OC=C4CC(OC(=O)CCC(=O)NCC[N+](C)(C)C)CCC4(C)C3CCC12C` (stereo not drawn) [Amphiphile, IX], the IC50 worked out at 59 µM.

Regarding `CC(C)CCCC(N)C1CCN2C3OC=C4CC(OC(=O)CCC(=O)NCCN(C)C)CCC4(C)C3CCC12C` (stereo not drawn) [Amphiphile, VIII], the IC50 was found to be 191 µM.

As to `CC(C)CCCC(C)C1CCC2C3CC=C4CC(C(=O)NCCN)CCC4(C)C3CCC12C` (stereo not drawn) [Amphiphile, VII], the IC50 turned out to be 246 µM.

Turning to `CC(C)CCCC(C)C1CCC2C3CC=C4CC(C(=O)OC(CN(C)C)C[N+](C)(C)C)CCC4(C)C3CCC12C` (stereo not drawn) [Amphiphile, VI], the IC50 stood at 11 µM.

Take `CC(C)CCCC(C)C1CCC2C3CC=C4CC(C(=O)OC(CN(C)C)CN(C)C)CCC4(C)C3CCC12C` (stereo not drawn) [Amphiphile, V]: the IC50 worked out at 643 µM.

`CC(C)CCCC(N)C1CCN2C3OC=C4CC(OC(=O)CCC(=O)OCCN(C)CC[N+](C)(C)C)CCC4(C)C3CCC12C` (stereo not drawn) [Amphiphile, XIII] gave an IC50 of 20 µM.

The compound `CC(C)CCCC(N)C1CCN2C3OC=C4CC(OC(=O)CCC(=O)OCCN(C)CCN(C)C)CCC4(C)C3CCC12C` (stereo not drawn) [Amphiphile, XII] returned an IC50 of 164 µM.

As for `CC(C)CCCC(N)C1CCN2C3OC=C4CC(OC(=O)CCC(=O)OC(CN(C)C)C[N+](C)(C)C)CCC4(C)C3CCC12C` (stereo not drawn) [Amphiphile, XI], the IC50 is 15 µM.

Compound `CCCCCCCCCCCCCCCCCCCCCCCC(=O)OC(CN(C)C)C[N+](C)(C)C` (stereo not drawn) [Amphiphile, XVII] displayed an IC50 of 40 µM.

As to `CCCCCCCCCCCCCCCCCCCCCC(=O)OC(CN(C)C)C[N+](C)(C)C` (stereo not drawn) [Amphiphile, XVI], the half-inhibitory concentration (IC50) is 26 µM.

With `CC(C)CCCC(N)C1CCN2C3OC=C4CC(OC(=O)CCC(=O)OC(CN(C)C)CN(C)C)CCC4(C)C3CCC12C` (stereo not drawn) [Amphiphile, X], the IC50 was 408 µM.

What is called IC50 is the concentration at which inhibition is half-maximal. A higher IC50 goes with a need for much substance.
